In ChEMBL document CHEMBL1828586 (J Med Chem, 2011):

What was measured:
[1] = Anticancer activity against mouse B16-F1 cells after 96 hrs by SRB assay; type: functional, cell-based; details: B16-F1, 96 h
[2] = tested on: A-375; assay: Anticancer activity against human A375 cells after 96 hrs by SRB assay; type: functional, cell-based; details: A-375, 96 h
[3] = tested on: DU-145; assay: Anticancer activity against human DU145 cells after 96 hrs by SRB assay; type: functional, cell-based; details: DU-145, 96 h
[4] = tested on: PC-3; assay: Anticancer activity against human PC3 cells after 96 hrs by SRB assay; type: functional, cell-based; details: PC-3, 96 h
[5] = tested on: LNCaP; assay: Anticancer activity against human LNCAP cells after 96 hrs by SRB assay; type: functional, cell-based
[6] = tested on: PPC-1; assay: Anticancer activity against human PPC1 cells after 96 hrs by SRB assay; type: functional, cell-based; details: PPC-1, 96 h
[7] = tested on: OVCAR-8; assay: Anticancer activity against human OVCAR8 cells after 96 hrs by SRB assay; type: functional, cell-based; details: OVCAR-8, 96 h
[8] = tested on: NCI/ADR-RES; assay: Anticancer activity against P-gp overexpressing human NCI/ADR-RES cells after 96 hrs by SRB assay; type: functional, cell-based
[9] = tested on: OVCAR-8; assay: Resistance factor, ratio of IC50 for human NCI-ADR-RES cells to IC50 for drug-sensitive human OVCAR8 cells; type: functional
[10] = Anticancer activity against human WM164 cells after 96 hrs by SRB assay; type: functional, cell-based; details: WM164, 96 h
[11] = tested on: Liver microsomes; assay: Half life in human liver microsomes; type: ADME, Microsome
[12] = AUC in Sprague-Dawley rat at 10 mg/kg, po by LC-MS/MS analysis; type: ADME, organism-based; set-up: dose 10 mg/kg, route oral; details: plasma
[13] = AUC in Sprague-Dawley rat at 5 mg/kg, iv by LC-MS/MS analysis; type: ADME, organism-based; set-up: dose 5 mg/kg, route intravenous; details: plasma
[14] = AUC in Sprague-Dawley rat at […], iv by LC-MS/MS analysis; type: ADME, organism-based; set-up: dose 2.5 mg/kg, route intravenous; details: plasma

Structure (SMILES) | IC50 [2] [nM] | IC50 [3] [nM] | IC50 [4] [nM] | IC50 [5] [nM] | IC50 [1] [nM] | IC50 [6] [nM] | IC50 [7] [nM] | IC50 [8] [nM] | Ratio IC50 [9] | IC50 [10] [nM] | t1/2 [11] [min] | AUC [12] [ng·h/mL] | AUC [13] [ng·h/mL] | AUC [14] [ng·h/mL]
COc1cc(C(=O)c2csc(Nc3ccccc3)n2)cc(OC)c1OC | – | 70 | 57 | 51 | 65 | 54 | 46 | 27 | 0.6 | – | – | – | – | –
COc1cc(C(=O)c2cccc(-c3ccccc3)n2)cc(OC)c1OC | 30 | – | – | 27 | 39 | 25 | 33 | 13 | 0.4 | – | – | – | – | –
COc1cc(C(=O)N2CCC(c3ccccc3)CC2)cc(OC)c1OC | > 30000 | > 20000 | > 20000 | > 20000 | > 30000 | > 20000 | – | – | – | – | – | – | – | –
COc1cc(/C(=C/C#N)c2csc(-c3ccccc3)n2)cc(OC)c1OC | 4600 | 2280 | 890 | 580 | 5400 | 900 | – | – | – | 4900 | – | – | – | –
COc1cc(/C(=C\C#N)c2csc(-c3ccccc3)n2)cc(OC)c1OC | 1200 | 10000 | 10000 | 1990 | 1200 | 10000 | – | – | – | 1000 | – | – | – | –
COc1cc(/C(=N\C#N)c2csc(-c3ccccc3)n2)cc(OC)c1OC | 28 | 42 | 27 | 23 | 60 | 20 | 34 | 14 | 0.4 | 27 | < 5 | – | – | –
COc1cc(Sc2cccc(-c3ccccc3)c2)cc(OC)c1OC | 1600 | > 10000 | > 10000 | 2300 | 2400 | 2300 | – | – | – | 2000 | – | – | – | –
COc1cc([S+]([O-])c2cccc(-c3ccccc3)c2)cc(OC)c1OC (stereo not given) | > 10000 | > 10000 | > 10000 | > 10000 | > 10000 | > 10000 | – | – | – | > 10000 | – | – | – | –
COc1cc(NS(=O)(=O)c2cccc(-c3ccccc3)c2)cc(OC)c1OC | > 10000 | > 10000 | > 10000 | > 10000 | > 10000 | > 10000 | – | – | – | > 10000 | – | – | – | –
COc1cc(C(=O)[C@@H]2CSC(c3ccc(O[Si](C)(C)C(C)(C)C)cc3)=N2)cc(OC)c1OC | 700 | 434 | 183 | 549 | 500 | 246 | – | – | – | – | – | – | – | –
COc1cc(C(=O)c2csc(-c3cc4ccccc4[nH]3)n2)cc(OC)c1OC | 19 | 32 | 24 | 28 | 43 | 28 | – | – | – | – | – | – | – | –
COc1cc(C(=O)c2csc(-c3ccc4[nH]ccc4c3)n2)cc(OC)c1OC | 8 | 13 | 7 | – | 25 | 8 | 10 | 4 | 0.4 | – | – | – | – | –
CNCc1ccc(-c2nc(C(=O)c3cc(OC)c(OC)c(OC)c3)cs2)cc1 | > 10000 | 10000 | > 10000 | 1140 | > 10000 | 10000 | – | – | – | – | – | – | – | –
COc1cc(C(=O)c2csc(Nc3ccc(C)cc3)n2)cc(OC)c1OC [listing 1 of 2 here] | – | 35 | 38 | 35 | – | 36 | – | – | – | – | – | – | – | –
COc1cc(C(=O)c2csc(Nc3ccc(F)cc3)n2)cc(OC)c1OC | – | 63 | – | 41 | – | – | 44 | 25 | – | – | – | – | – | –
COc1cc(C(=O)c2csc(Nc3ccccc3)n2)cc(OC)c1OC.Cl | – | – | – | – | – | – | – | – | – | – | – | 1080 | 4930 | –
COc1cc(C(=O)c2csc(Nc3ccc(F)cc3)n2)cc(OC)c1OC.Cl | – | – | – | – | – | – | – | – | – | – | – | 2670 | 6350 | –
COc1cc(C(=O)c2csc(Nc3ccc(C)cc3)n2)cc(OC)c1OC [listing 2 of 2 here] | – | – | – | – | – | – | 28 | 21 | 0.8 | – | – | – | – | –
COc1cc(C(=O)c2csc(-c3ccccc3)n2)cc(OC)c1OC | – | – | – | – | 55 | – | 35 | – | – | 64 | – | 617 | – | 4650
CC(=O)O[C@H]1C(=O)[C@@]2(C)[C@H]([C@H](OC(=O)c3ccccc3)[C@]3(O)C[C@H](OC(=O)[C@H](O)[C@@H](NC(=O)c4ccccc4)c4ccccc4)C(C)=C1C3(C)C)[C@]1(OC(C)=O)CO[C@@H]1C[C@@H]2O [PACLITAXEL] | – | – | – | – | – | – | 4.7 | – | – | – | – | – | – | –

Further lines, with some results ahead:

IC50 [2] [nM] | IC50 [3] [nM] | IC50 [4] [nM] | IC50 [5] [nM] | Structure (SMILES) | IC50 [1] [nM] | IC50 [6] [nM] | IC50 [7] [nM] | IC50 [8] [nM] | Ratio IC50 [9] | IC50 [10] [nM] | t1/2 [11] [min] | AUC [12] [ng·h/mL] | AUC [13] [ng·h/mL] | AUC [14] [ng·h/mL]
100 | 116 | 87 | 103 | COc1cc(C(=O)c2csc(-c3ccc(O)cc3)n2)cc(OC)c1OC | 110 | 76 | – | – | – | – | – | – | – | –
500 | – | – | – | COc1cc(C(=O)[C@@H]2COC(c3ccccc3)=N2)cc(OC)c1OC | 6500 | 1100 | – | – | – | – | – | – | – | –
300 | 292 | 292 | 331 | COc1cc(C(=O)c2coc(-c3ccccc3)n2)cc(OC)c1OC | 600 | 343 | – | – | – | – | – | – | – | –
87 | 171 | 124 | 52 | COc1cc(C(=O)c2cccc(-c3ccccc3)c2)cc(OC)c1OC | 500 | 80 | – | – | – | – | – | – | – | –
> 30000 | 6900 | 8300 | 7000 | COc1cc(C(=O)c2cc(-c3ccccc3)ncn2)cc(OC)c1OC | > 30000 | 3700 | – | – | – | – | – | – | – | –
27 | 35 | 21 | 23 | COc1cc(C(=O)c2ccc(-c3ccccc3)o2)cc(OC)c1OC | 151 | 20 | – | – | – | – | – | – | – | –
15 | 26 | 12 | – | COc1cc(C(=O)c2csc(-c3ccccc3)c2)cc(OC)c1OC | 72 | 15 | – | – | – | – | – | – | – | –
100 | 145 | 101 | 101 | COc1cc(C(=O)c2cc(-c3ccccc3)n[nH]2)cc(OC)c1OC | 245 | 84 | – | – | – | – | – | – | – | –
13600 | > 10000 | > 10000 | > 10000 | COc1cc(C(=O)c2cnc(-c3ccccc3)s2)cc(OC)c1OC | 12500 | > 10000 | – | – | – | – | – | – | – | –
> 30000 | > 10000 | > 10000 | > 10000 | COc1cc(C(=O)c2cc(-c3ccccc3)on2)cc(OC)c1OC | > 30000 | > 10000 | – | – | – | – | – | – | – | –
200 | 103 | 120 | 169 | COc1cc(/C(=N/O)c2csc(-c3ccccc3)n2)cc(OC)c1OC | 300 | 144 | – | – | – | – | – | – | – | –
7800 | > 10000 | > 10000 | > 10000 | COc1cc(/C(=N\O)c2csc(-c3ccccc3)n2)cc(OC)c1OC | 11400 | > 10000 | – | – | – | – | – | – | – | –
2900 | > 10000 | > 10000 | > 10000 | CO/N=C(/c1cc(OC)c(OC)c(OC)c1)c1csc(-c2ccccc2)n1 | 3800 | – | – | – | – | 3400 | – | – | – | –
> 10000 | > 10000 | – | – | CO/N=C(\c1cc(OC)c(OC)c(OC)c1)c1csc(-c2ccccc2)n1 | > 10000 | > 10000 | – | – | – | > 10000 | – | – | – | –
> 30000 | > 10000 | > 10000 | > 10000 | COc1cc(C(=O)Nc2csc(-c3ccccc3)n2)cc(OC)c1OC | > 30000 | > 10000 | – | – | – | – | – | – | – | –
900 | 1210 | 1120 | 1800 | COc1cc(/C(=N/N)c2csc(-c3ccccc3)n2)cc(OC)c1OC | 2000 | 872 | – | – | – | – | – | – | – | –
600 | – | 1040 | 1300 | COc1cc(/C(=N\N)c2csc(-c3ccccc3)n2)cc(OC)c1OC | 1800 | 966 | – | – | – | – | – | – | – | –
> 30000 | > 10000 | > 10000 | > 10000 | COc1cc(C(O)c2csc(-c3ccccc3)n2)cc(OC)c1OC (stereo not given) | > 30000 | > 10000 | – | – | – | – | – | – | – | –
1900 | 2650 | 2470 | 1390 | COc1cc(C(=C(C)C)c2csc(-c3ccccc3)n2)cc(OC)c1OC | 3800 | 2040 | – | – | – | 3700 | – | – | – | –
> 10000 | > 10000 | > 10000 | > 10000 | COc1cc(-c2csc(-c3ccccc3)n2)cc(OC)c1OC | > 10000 | > 10000 | – | – | – | > 10000 | – | – | – | –
> 10000 | > 10000 | > 10000 | > 10000 | COc1cc(S(=O)(=O)c2cccc(-c3ccccc3)c2)cc(OC)c1OC | > 10000 | > 10000 | – | – | – | > 10000 | – | – | – | –
7900 | 4300 | 3100 | 2600 | COc1cc(C(=O)c2csc(-c3ccc(CNC(=O)OC(C)(C)C)cc3)n2)cc(OC)c1OC | 2900 | 2700 | – | – | – | – | – | – | – | –
> 10000 | > 10000 | > 10000 | 1020 | COc1cc(C(=O)c2csc(-c3ccc(CN(C)C)cc3)n2)cc(OC)c1OC | > 10000 | > 10000 | – | – | – | – | – | – | – | –
> 30000 | > 10000 | > 10000 | > 10000 | COc1cc(NC(=O)c2csc(-c3ccccc3)n2)cc(OC)c1OC | > 30000 | > 10000 | – | – | – | – | – | – | – | –
